According to US5880092A, “Conformationally stabilized cell adhesion peptides” (La Jolla Cancer Research Foundation, priority 1995, dated 1999):
Where no end group is shown, it is not given here. [ ]: non-standard residue; d: D form. Pen = CC(C)(S)[C@H](N)C(=O)O

Legend:
[1] = test system: attachment of normal rat kidney cells to vitronectin; test: Cell adhesion assay: inhibition of attachment of normal rat kidney cells to vitronectin; format: cell-based; settings: vitronectin from human plasma coated at 12 μg/ml, peptide 0 to 10.0 mM, FIG. 2
Method: (§1) Fibronectin and vitronectin were purified from human plasma according to the methods of Ruoslahti et al., (1982) Meth. Enz. 82:803; and Hayman et al., (1983) PNAS 80:4003, respectively, both of which are incorporated herein by reference. The adhesion of normal rat kidney cells to fibronectin and vitronectin was assayed as described in Ruoslahti et al., Meth. Enz. supra. Briefly, 0.1 ml solution of fibronectin or vitronectin at a concentration of 12 μg/ml in 0.1M PBS was placed in each well of 96-well plastic microtiter plates and left for 2 hours at room temperature. The unattached protein was removed by washing three times with PBS.
(§2) One day before the assay, a confluent culture of normal rat kidney cells was split 1:2 using standard tissue culture trypsin. The cells were washed three times with PBS, pH 7.2. […] Before the last centrifugation, a sample was taken and cell numbers and viability by trypan blue exclusion are determined. […]
(§3) The unattached cells were removed simply by removing the medium and washing the wells. […] The cells were then fixed with 3% paraformaldehyde in PBS and stained with 1% toluidine blue, paraformaldehyde in PBS, and attached cells counted. Their number was determined using a cell counter that is capable of counting cells attached to a surface (Dynatech Laboratories, Alexandria, Va.). […]

[2] = test system: attachment of normal rat kidney cells to fibronectin; test: Cell adhesion assay: inhibition of attachment of normal rat kidney cells to fibronectin; format: cell-based; settings: fibronectin from human plasma coated at 12 μg/ml, peptide 0 to 10.0 mM, FIG. 2
Method: as §1, §2, §3

G[Pen]GRGDSPC (cysteine pairing not given here) [linear peptide]
inhibition of attachment to vitronectin [1]: inhibited attachment of cells to both substrates at relatively similar concentrations
inhibition of attachment to fibronectin [2]: inhibited attachment of cells to both substrates at relatively similar concentrations
